Consider 30 compounds from patent US8580795B2, “Heterocyclic compounds as phosphodiesterase inhibitors” (Orchid Chemicals & Pharmaceuticals Limited, priority 2009, dated 2013).

Each structure is given as a SMILES string.

Chain of human PDE4B enzyme (PDE4B2) (Q07343 1-564 isoform Q07343-2): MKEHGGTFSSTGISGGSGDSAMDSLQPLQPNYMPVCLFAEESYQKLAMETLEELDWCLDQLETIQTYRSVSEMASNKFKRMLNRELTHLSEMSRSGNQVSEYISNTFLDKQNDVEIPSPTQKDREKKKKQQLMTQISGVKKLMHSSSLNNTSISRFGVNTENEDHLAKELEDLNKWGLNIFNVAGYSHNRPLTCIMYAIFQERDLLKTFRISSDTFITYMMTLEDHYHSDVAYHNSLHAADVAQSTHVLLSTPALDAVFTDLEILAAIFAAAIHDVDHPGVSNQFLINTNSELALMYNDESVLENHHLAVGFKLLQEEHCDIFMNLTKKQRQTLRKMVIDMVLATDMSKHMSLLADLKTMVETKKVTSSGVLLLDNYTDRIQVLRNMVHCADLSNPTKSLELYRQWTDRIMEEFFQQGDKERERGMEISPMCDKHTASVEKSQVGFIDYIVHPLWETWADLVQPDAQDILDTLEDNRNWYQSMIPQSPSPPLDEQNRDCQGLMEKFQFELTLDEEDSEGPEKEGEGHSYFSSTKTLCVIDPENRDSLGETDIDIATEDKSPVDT

The first assay deals with TNF-α. The experiment in a line: In vitro measurement of TNF-α production in LPS-stimulated human PBMC (ELISA). The format is cell-based. To be noted: 100 nM compound, LPS 1 μg/mL, 18 h, NA: Not active. The procedure: Biological Activity In Vitro Measurement of Tumor Necrosis Factor Alpha (TNF-α):
This assay determines the effect of test compounds on the production of TNF-α in human Peripheral Blood Mononuclear Cells (PBMC). Compounds were tested for their ability to inhibit the activity of TNF α in human PBMC. PBMC were isolated from blood (of healthy volunteers) using BD Vacutainer CPT™ (Cell preparation tube, BD Bio Science) and suspended in RPMI (Rosewell park memorial institute) medium (Physiol. Res. 2003, 52, 593-598). The test compounds were pre-incubated with PBMC (0.5 million/incubation well) for 15 minutes at 37° C. and then stimulated with Lipopolysaccharide (Escherichia coli: B4; 1 μg/mL) for 18 h at 37° C. in 5% CO2. The levels of TNF-α in the cell culture medium were estimated using enzyme-linked immunosorbent assay performed in a 96 well format as per the procedure of the manufacturer (Cayman Chemical, Ann Arbor, USA).
In general terms: ELISA stands for enzyme-linked immunosorbent assay.
`COc1ccc(-c2nc(-c3cccc(C(=O)O)n3)cs2)c2c1oc1ccccc12` [Example 2, 6-(2-(4-Methoxydibenzo[b,d]furan-1-yl)-1,3-thiazol-4-yl)picolinic acid] yielded an inhibition at 0.1 µM of 26.1%.
Still for that read-out and setting: next, `COc1ccc(-c2nc(C(=O)NC3CCCC3)c(C)s2)c2c1oc1ccccc12` [Example 26, N-Cyclopentyl-2-(4-methoxydibenzo[b,d]furan-1-yl)-5-methyl-1,3-thiazole-4-carboxamide]: 21.9%; `COc1ccc(-c2nc(C(=O)NC3CCC(O)CC3)c(C)s2)c2c1oc1ccccc12` (stereo not drawn) [Example 27, N-(4-Hydroxycyclohexyl)-2-(4-methoxydibenzo[b,d]furan-1-yl)-5-methyl-1,3-thiazole-4-carboxamide]: 82.7%.

For a further assay, the target named is human PDE4B enzyme (PDE4B2) (Homo sapiens, UniProt Q07343). The experiment in a line: Phosphodiesterase 4 screening assay (SPA, [3H]-cAMP). Type of assay: biochemical. As to conditions: 100 nM compound; 0.5 μM cAMP. The procedure:
Phosphodiesterase 4 Screening Assay:
PDE4 (Phosphodiesterase type IV) enzymes convert cyclic AMP (cAMP) into AMP. The assay is performed to determine the effect of test compounds on the inhibition of purified human PDE4B enzyme.
The assay involves the detection of the Tritiated AMP (product) using SPA beads known as yittrium silicate. The linear AMP bind preferentially to SPA yittrium silicate beads compared to cyclic nucleotides in the presence of zinc sulphate. The binding of the radiolabelled product to the bead brings the isotope into close proximity to allow radiation from the tritium to excite the scintillant within the bead to emit light. The unbound radiolabel is not close enough to allow this energy transfer and the light emitted due to the binding of tritiated AMP is detected as cpm (counts per minute).
PDE Activity (SPA Based Assay Protocol):
PDE4B activity was inhibited by the compounds according to the invention in a modified SPA (scintillation proximity assay) test, supplied by GE Healthcare Life Sciences (see procedural instructions “Phosphodiesterase [^3H]-cAMP SPA enzyme assay, code TRKQ 7090”), carried out in 96-well microtitre plates. The test volume is 100 μL and contains 50 mM Tris buffer (pH 7.4), 8.3 mM Mg^2+, in the presence of inhibitor or test compound, and containing PDE4B2 enzyme (sufficient to ensure that 10-20% of the cAMP is converted, under the said experimental conditions). […] After a pre-incubation of 5 minutes at 37° C., the reaction is started by adding the substrate (cAMP; 0.5 μM cAMP, including about 50,000 cpm of [^3H]-cAMP) and the assays are incubated for a further 10 minutes; after that, they are stopped by adding SPA beads containing 18 mM ZnSO4 (50 μl). After the beads have been sedimented (>30 minutes), the microtitre plates are analyzed in a Microplate luminescence detection device (TopCount* NXT; PerkinElmer Life Sciences). Where, the signal in the absence of enzyme is defined as the background. 100% activity was defined as the signal detected in the presence of enzyme and DMSO with the background subtracted. The corresponding IC50 values of the compounds for the inhibition of PDE4B2 activity are determined from the concentration-effect curves by means of non-linear regression fit of the standard 4-parameter/multiple binding sites equation from a eight- to ten-point titration. (Catherine B. et al. Anal. Biochem., 1999, 275(2), pp. 148-155, David M. E. Biochem. Pharmacol., 1999, 57, pp. 965-973)
In turn, `COc1ccc(-c2nc(-c3ccc(C#N)cc3)cs2)c2c1oc1ccccc12` [Example 8, 4-(2-(4-Methoxydibenzo[b,d]furan-1-yl)-1,3-thiazol-4-yl)benzonitrile] came in with an inhibition at 0.1 µM of 5.16%.
Same read-out and setting: next, `COc1ccc(-c2nc(CC(=O)Nc3c(Cl)cncc3Cl)cs2)c2c1oc1ccccc12` [Example 12, N-(3,5-Dichloropyridin-4-yl)-2-(2-(4-methoxydibenzo[b,d]furan-1-yl)-1,3-thiazol-4-yl)acetamide]: 8.92%; `CCOC(=O)c1csc(-c2ccc(OC)c3oc4ccccc4c23)n1` [Example 15, Ethyl 2-(4-methoxydibenzo[b,d]furan-1-yl)-1,3-thiazole-4-carboxylate]: 17.6%.
On the same count and under the same terms, next, `COc1ccc(-c2nc(C(=O)O)cs2)c2c1oc1ccccc12` [Example 16, 2-(4-Methoxydibenzo[b,d]furan-1-yl)-1,3-thiazole-4-carboxylic acid]: 36%; `COc1ccc(-c2nc(C(=O)Nc3ccccc3)cs2)c2c1oc1ccccc12` [Example 17, 2-(4-Methoxydibenzo[b,d]furan-1-yl)-N-phenyl-1,3-thiazole-4-carboxamide]: 2.42%; `COc1ccc(-c2nc(C(=O)N3CCN(c4ncccn4)CC3)cs2)c2c1oc1ccccc12` [Example 18, (2-(4-Methoxydibenzo[b,d]furan-1-yl)-1,3-thiazol-4-yl)(4-(pyrimidin-2-yl)piperazin-1-yl)methanone]: 25.8%.
`COc1ccc(-c2nc(C(=O)N3CCN(c4ccccn4)CC3)cs2)c2c1oc1ccccc12` [Example 19, (2-(4-Methoxydibenzo[b,d]furan-1-yl)-1,3-thiazol-4-yl)(4-(pyridin-2-yl)piperazin-1-yl)methanone] had an inhibition at 0.1 µM of 21.9%.
In the case of `COc1ccc(-c2nc(C(=O)Nc3ccc(Cl)cc3)cs2)c2c1oc1ccccc12` [Example 20, N-(4-Chlorophenyl)-2-(4-methoxydibenzo[b,d]furan-1-yl)-1,3-thiazole-4-carboxamide], the inhibition at 0.1 µM was 2.98%.
On the same count and under the same terms, to `CCOC(=O)c1sc(-c2ccc(OC)c3oc4ccccc4c23)nc1C` [Example 21, Ethyl 2-(4-methoxydibenzo[b,d]furan-1-yl)-4-methyl-1,3-thiazole-5-carboxylate] belongs 9.1%.
Compound `COc1ccc(-c2csc(-c3ccc(OC)c4oc5ccccc5c34)n2)cc1` [Example 22, 2-(4-Methoxydibenzo[b,d]furan-1-yl)-4-(4-methoxyphenyl)-1,3-thiazole] had an inhibition at 0.1 µM of 19.4%.
Same read-out and setting: to `COc1ccc(-c2nc(C)c(C(=O)O)s2)c2c1oc1ccccc12` [Example 23, 2-(4-Methoxydibenzo[b,d]furan-1-yl)-4-methyl-1,3-thiazole-5-carboxylic acid] belongs 16.8%.
The same measure, in the same setting: next, `CS(=O)(=O)Nc1ccc2oc3c(OC(F)F)ccc(-c4nc(C(=O)O)co4)c3c2c1` [Example 49, 2-(4-(Difluoromethoxy)-8-(methylsulfonamido)dibenzo[b,d]furan-1-yl)-1,3-oxazole-4-carboxylic acid]: 59.5%; `CCNC(=O)c1nc(-c2ccc(OC)c3oc4ccccc4c23)oc1C` [Example 57, N-Ethyl 2-(4-methoxydibenzo[b,d]furan-1-yl)-5-methyl-1,3-oxazole-4-carboxamide]: 32.5%; `COc1ccc(-c2nc(C(N)=O)c(C)o2)c2c1oc1ccccc12` [Example 58, 2-(4-Methoxydibenzo[b,d]furan-1-yl)-5-methyl-1,3-oxazole-4-carboxamide]: 64.1%.
Still for that read-out and setting: to `COc1ccc(-c2nc(C(=O)NC3CCC(O)CC3)c(C)o2)c2c1oc1ccccc12` (stereo not drawn) [Example 60, N-(4-Hydroxycyclohexyl)-2-(4-methoxydibenzo[b,d]furan-1-yl)-5-methyl-1,3-oxazole-4-Carboxamide] belongs 47.3%.
`COc1ccc(-c2nc(C(=O)NC(C)C)c(C)o2)c2c1oc1ccccc12` [Example 61, 2-(4-Methoxydibenzo[b,d]furan-1-yl)-5-methyl-N-(propan-2-yl)-1,3-oxazole-4-carboxamide] returned an inhibition at 0.1 µM of 44.3%.
`COc1ccc(-c2nc(C(=O)N3CCN(c4ncc(C(=O)O)cn4)CC3)co2)c2c1oc1ccccc12` [Example 66, 2-(4-(2-(4-Methoxydibenzo[b,d]furan-1-yl)oxazole-4-carbonyl)piperazin-1-yl)pyrimidine-5-carboxylic acid] registered an inhibition at 0.1 µM of 18.9%.
Same read-out and setting: to `COc1ccc(-c2nc(C(N)=O)co2)c2c1oc1ccccc12` [Example 67, 2-(4-Methoxydibenzo[b,d]furan-1-yl)-1,3-oxazole-4-carboxamide] belongs 22.8%.
Still for that read-out and setting: to `CNC(=O)c1coc(-c2ccc(OC)c3oc4ccccc4c23)n1` [Example 69, 2-(4-Methoxydibenzo[b,d]furan-1-yl)-N-methyl-1,3-oxazole-4-carboxamide] belongs 33.3%; to `COc1ccc(-c2nc(C(=O)NC3CC3)co2)c2c1oc1ccccc12` [Example 70, N-Cyclopropyl-2-(4-methoxydibenzo[b,d]furan-1-yl)-1,3-oxazole-4-carboxamide], 2.34%; to `COc1ccc(-c2nc(C(=O)N3CCCC3)co2)c2c1oc1ccccc12` [Example 71, [2-(4-Methoxydibenzo[b,d]furan-1-yl)-1,3-oxazol-4-yl](pyrrolidin-1-yl)methanone], 20.3%.
The compound `COc1ccc(-c2nc3cc(C(=O)O)ccc3o2)c2c1oc1ccccc12` [Example 72, 2-(4-Methoxydibenzo[b,d]furan-1-yl)-1,3-benzo[d]oxazole-5-carboxylic acid] came in with an inhibition at 0.1 µM of 22.2%.
Same read-out and setting: next, `COc1ccc(-c2nc3cc(C(N)=O)ccc3o2)c2c1oc1ccccc12` [Example 73, 2-(4-Methoxydibenzo[b,d]furan-1-yl)-1,3-benzo[d]oxazole-5-carboxamide]: 18.1%; `COc1ccc(-c2nc3ccccc3o2)c2c1oc1ccccc12` [Example 74, 2-(4-Methoxydibenzo[b,d]furan-1-yl)-1,3-benzo[d]oxazole]: 54.9%; `COc1ccc(-c2nc3ncccc3o2)c2c1oc1ccccc12` [Example 75, 2-(4-Methoxydibenzo[b,d]furan-1-yl)[1,3]oxazolo[4,5-b]pyridine]: 37.2%.
Same read-out and setting: to `COc1ccc(-c2nc3cc(C(=O)NC4CCCC4)ccc3o2)c2c1oc1ccccc12` [Example 76, N-Cyclopentyl-2-(4-methoxydibenzo[b,d]furan-1-yl)-1,3-benzo[d]oxazole-5-carboxamide] belongs 48.3%; to `COc1ccc(-c2nc3cc(C(=O)NC4CCC(O)CC4)ccc3o2)c2c1oc1ccccc12` (stereo not drawn) [Example 77, N-(4-Hydroxycyclohexyl)-2-(4-methoxydibenzo[b,d]furan-1-yl)-1,3-benzo[d]oxazole-5-carboxamide], 55.3%.

As a reminder, the inhibition is the drop in the measured response relative to a control, in per cent. Lower therefore signals a weak effect.
